From patent publication US5652222A, “Selective inhibition of leukemic cell proliferation by bcr-abl antisense oligonucleotides” (Temple University-of The Commonwealth System of Higher …, priority 1993, dated 1997) come the findings set out here.

Data set [1] relates to Philadelphia chromosome-positive blast cells of CML patients in blast crisis, L-6 (b2a2) type junction. Briefly: Colony formation of CML blast crisis patient cells expressing the b2a2 (L-6) junction. The data set is classed as cell-based, human. The settings on record: for Number of Colonies, Antisense-treated: 40 μg/ml at start, 20 μg/ml 18 h later; for % Inhibition: number of colonies vs untreated. As to the method:
Leukemia cells were obtained from the marrow of the posterior iliac crest of five CML patients in blast crisis. The cells were diluted 1:2 in Iscove's modified Dulbecco medium (IMDM) to form a cell suspension. Philadelphia chromosome-positive blast cells were isolated by Ficoll-Hypaque density gradient sedimentation to remove non-mononuclear cells. Accordingly, the bone marrow cell suspension was gently overlayed on a Histopaque density gradient (Sigma Chemical Co., St. Louis, Mo.) in a 2:1 ratio, and then spun down for 30 min. at 1500 rpm and 18° C. Cells remaining in the interface layer after centrifugation were collected using a Pasteur pipet, and washed with IMDM at 1000 rpm and […] for 10 min.
Cells plated into methyl cellulose semisolid media after 7-11 days of culture were recovered from the medium. Total RNA was isolated according to the procedure of Chomczynski et al, Anal. Biochem. 162, 156-159 (1987). The RNA ([…]) isolated from one patient having particularly exuberant cell growth was annealed with the 3' RT-PCR primer GCTTCACACC ATTCCCCATTGT (SEQ ID NO:10) complementary to 22 nucleotides of c-abl exon 2 for 30 minutes at 37° C. Following annealing of the 3' primer, the RNA was reverse transcribed with 500 units of Moloney murine leukemia virus reverse transcriptase at 37° C. for 1 hour. The reaction was stopped and the mixture diluted in 1 x Thermus aquaticus (Taq) polymerase buffer. A 5' primer, the 22 nucleotide oligomer CACAGCATTCCGCTGACCATCA (SEQ ID NO: 11) complementary to bcr exon 2 and additional c-abl exon 2 3' primer were added to a final concentration of 2 ng/μl each with 2.5 units of Taq polymerase for amplification of the cDNA fragments. Sixty cycles of PCR were performed in a Perkin Elmer Thermal Cycler by annealing at 55° C., synthesizing at 72° C. and denaturing at 95° C. The amplification product, corresponding to the b2a2 junction, was thereafter separated on a 2% agarose gel. The band containing the bcr-abl fragment was cut out and cleaned according to a standard technique utilizing a GENE-CLEAN™ kit (Bio 101, Inc.), cloned by blunt end ligation in the BLUESCRIPT SK vector (Stratagene Cloning Systems) linearized by SMA I digestion. Several individual clones were then sequenced using the SEQUENASE™ version 2.0 enzyme (United States Biochemical Corp., Cleveland, Ohio), according to the sequence protocol recommended by the manufacturer. Accordingly, the denatured bcr-abl DNA fragments were annealed with specific primers which flank the cloning site in the BLUESCRIPT SK vector, in the presence of SEQUENASE™ reaction buffer for 15 min. at 37° C. The primer-annealed fragments were incubated at room temperature with SEQUENASE™ version 2.0 enzyme and α-S^35 dAT at 37° C. Subsequently, labelled template-primer complexes were transferred to tubes containing A, T, C and G nucleotides (one nucleotide per tube) and incubated 5-30 min. at 37° C. The samples were then loaded on a previously prepared acrylamide gel, and run for approximately 10 hours. The sequencing gel was dryed, and the film exposed O/N. Sequence analysis of several of the individual clones identified the bcr-abl junction as having the cDNA sequence shown in FIG. 1 (SEQ ID NO:1). The arrow in the figure indicates the bcr-abl breakpoint junction, and the box delineates the 18 nucleotides corresponding to the junction, which forms a preferred target sequence for hybridization of antisense oligomer. The junction corresponds precisely to the L-6 type breakpoint reported by Shtivelman et al., Cell 47, 277 (1986), in which the bcr exon 2 is fused to c-abl exon 2.
In a similar manner, L-6 type junctions were identified in the remaining CML blast crisis patients by hybridization of RT-PCR amplification products derived from blast crisis CML RNA using a synthetic 18-mer GAAGGGCTTC TTCCTTAT (SEQ ID NO:3) specific for the 18-nucleotide target sequence of the L-6 bcr-abl junction. […]

Data set [2] has as its system cells of CML patients in blast crisis, K-28 (b3a2) type junction. Briefly: Colony formation of CML blast crisis patient cells expressing the b3a2 (K-28) junction. The data set is classed as cell-based, human. The settings on record: antisense to L-6 junction on K-28 cells, compared with untreated cells. The source says: To identify CML blast crisis patients carrying the second common type junction, in which bcr exon 3 is juxtaposed to c-abl exon 2, total RNA derived from cells of CML patients in blast crisis was reverse-transcribedwith synthetic primers. The 3' primer (SEQ ID NO:10) was complementary to 22 nucleotides of c-abl. exon 2. The 5' primer was the 22-mer GTCATCGTCCACTCAGCCACTG (SEQ ID NO:12) complementary to 22 nucleotides of bcr exon 3. The RNA was amplified by polymerase chain reaction according to Example 1. The amplification products were then hybridized with the synthetic 18-mer oligonucleotide GAAGGGCTTT TGAACTCT (SEQ ID NO:6), which is complementary to the b3a2 junction. After cloning of breakpoints in two patients, sequence analysis of several clones identified the b3a2 junction as precisely corresponding to the K-28 breakpoint shown in FIG. 3. (SEQ ID NO:4).
Utilizing the culture condition and oligomer treatment conditions of Example 1, cells were exposed to either no oligomer (FIG. 4A), the 18-nucleotide synthetic oligomer GAAGTGCTGT TGAACTCT (SEQ ID NO:5) partially complementary to the b3a2 junction, containing 9 nucleotides corresponding to bcr and 9 nucleotides corresponding to c-abl but with two mismatches (FIG. 4B); or the 18-nucleotide synthetic oligomer GAAGGGCTTT TGAACTCT (SEQ ID NO:6) completely complementary to the same bcr-abl junction (FIG. 4C).

By % Inhibition is commonly meant the change of the read-out against control, counted positive when it falls. Regarding “SEQ ID NO:3: synthetic 18-mer GAAGGGCTTC TTCCTTAT specific for the 18-nucleotide target sequence of the L-6 bcr-abl junction (antisense GAAGGGCTTCTTCCTTAT; chemistry not given here)”, the “colonies of blast cells formed” value in data set [1] (10 days in semi-solid culture (FIG. 2)) was “very few colonies, with a much smaller number of cells”. Further, the “Number of Colonies, Antisense-treated” value turned out to be 112 ± 18 colonies in data set [1] (Table 1, patient 1, untreated 450 ± 64); 62 ± 8 colonies in data set [1] (Table 1, patient 2, untreated 324 ± 18); 80 ± 8 colonies in data set [1] (Table 1, patient 4, untreated 212 ± 15); 70 ± 8 colonies in data set [1] (Table 1, patient 5, untreated 380 ± 16). For the same substance, the “% Inhibition” value is 90% in data set [1] (Table 1, patient 3) and 82% in data set [1] (Table 1, patient 5). The “inhibition of colony formation” value in data set [1] (five L-6 type junction patients, repeated experiments) is 60 to 90%; in data set [2], 2.5-5%. The “reduction of colony formation” value in data set [2] was “No significant reduction of colony formation”.
